Experimental data taken from patent publication US20170368089A1, “COMPOSITION FOR PREVENTING OR TREATING COLITIS” (UNIVERSITY-INDUSTRY COOPERATION GROUP OF KYUNG HEE …, priority 2012, published 2017).

How the values were obtained:
IL-6 = IL-6 expression in colon tissue (ELISA), TNBS colitis, second experiment; format: in vivo, ICR male mice; conditions: Table 9, extract-based samples, TNBS-treated mice, 10 mg/kg orally, 3 days
Method: (§1) Among the experimental groups, one group was set as a normal group, and for the experimental animals in other groups, colitis was induced with 2,4,6-trinitrobenzenesulfonic acid (TNBS). In detail, after lightly anesthetizing the experimental animals with ether, 0.1 ml of the solution prepared by mixing […] of 2,4,6-Trinitrobenzene sulfonic acid (NBS) solution with 50% ethanol was injected into the colon through the anus using a syringe having 1 ml volume and oval point, respectively; and then, the syringe was vertically picked up, and then, maintained for 30 seconds to induce the inflammation. Meanwhile, 0.1 ml of normal saline solution was orally administered to the normal group. Since then, from the next day, the sample dissolved in normal saline solution was orally administered in the volume that was decided in advance one time a day for 3 days. […]
(§2) 250 μl of RIPA butter including protease inhibitor cocktail was added to 100 mg of the colon tissue of experimental animal, and then, the colon tissue was homogenized. […] While the supernatant was stored at −80° C., the expression amounts of IL-1 beta, IL-6, and TNF-alpha were measured using a 96-well ELISA plate kits (Pierce Biotechology, Inc., Rockford, Ill., USA).

Myeloperoxidase (MPO) = test: MPO activity of colon tissue, TNBS acute colitis, third experiment; format: in vivo, male mice (C57BL/6); conditions: Table 12; TNBS-treated mice, 10 mg/kg orally, 3 days
Method: Meanwhile, 0.1 ml of normal saline solution was orally administered to the normal group. Since then, from the next day, the sample dissolved in normal saline solution was orally administered in the volume that was decided in advance one time a day for 3 days. At the next day after completing the sample administration, the experimental animals were suffocated to death with carbon dioxide, and the colon from appendix to the region just before the anus was removed from the colon region. At this time, as a medicine sample, the experiments using the butanol-soluble fraction of the Anemarrhena asphodeloides Bunge extract, Mangiferin, and a combined extract were separately performed at a distance of time, respectively, and the effects of the medicine samples on preventing or treating colitis were reasonably analyzed based on the group supplied with normal saline solution instead of a specific medicine in the model animals with acute colitis induced by TNBS for each of the experiments. […] Since then, the homogenized colon tissue was centrifuged under the conditions of 4° C. and 13000 rpm for 15 minutes, and then, the supernatant thereof was obtained. […] Since then, 100 μl of a stop solution was added to stop the reaction, and then, the absorbance was measured at 450 nm using an ELISA reader.

TNF-alpha = TNF-alpha expression in colon tissue (ELISA), TNBS colitis, second experiment; format: in vivo, ICR male mice; conditions: Table 9, extract-based samples, TNBS-treated mice, 10 mg/kg orally, 3 days
Method: as §1, §2

[1] = tested on: model animal with acute colitis induced by TNBS; test: Acute colitis induced by TNBS in mice, weight change and colon appearance (macroscopic score, colon length), third experiment; format: in vivo, male mice (C57BL/6); conditions: Table 12, TNBS-treated mice, 3 days
Method: All the mice were bred under the controlled environmental conditions of 50 ±10% of humidity and 20 to 22° C. of temperature, and the lighting was repeatedly on for 12 hours and off for 12 hours. A feed for a standard experiment (Samyang, Korea) was used as a feed, and water was freely taken. For all the experiments, one group was 6 mice. […] Meanwhile, 0.1 ml of normal saline solution was orally administered to the normal group. Since then, from the next day, the sample dissolved in normal saline solution was orally administered in the volume that was decided in advance one time a day for 3 days. At the next day after completing the sample administration, the experimental animals were suffocated to death with carbon dioxide, and the colon from appendix to the region just before the anus was removed from the colon region. At this time, as a medicine sample, the experiments using the butanol-soluble fraction of the Anemarrhena asphodeloides Bunge extract, Mangiferin, and a combined extract were separately performed at a distance of time, respectively, and the effects of the medicine samples on preventing or treating colitis were reasonably analyzed based on the group supplied with normal saline solution instead of a specific medicine in the model animals with acute colitis induced by TNBS for each of the experiments. The sample administration to the model animals with colitis induced by TNBS was stopped, and at the next day, the weights of the experimental animals were measured, and then, the measured weights were compared with the initial weights to calculate the change amounts of weights. The scores about the removed colons were estimated by observing the appearances and the lengths of the colons according to the following criteria (Hollenbach, and the like, the criteria about the level of colon in 2005) as listed in Table 11. At this time, as a positive control group, the group administered with Mesalazine (Sigma) was used. In addition, some of the content in the colon was collected in order to analyze the rumen microorganisms, and then, was stored in a freezer of −80° C. […]

IL-1 beta = IL-1 beta expression in colon tissue (ELISA), TNBS colitis, second experiment; format: in vivo, ICR male mice; conditions: Table 9, extract-based samples, TNBS-treated mice, 10 mg/kg orally, 3 days
Method: as §1, §2

Nc1ccc(O)c(C(=O)O)c1 [mesalazine, Mesalazine]
IL-6 conc. (IL-6): 1.32 ± 0.11 pg/mg | MPO activity (Percentage to group supplied with normal saline solution after treating TNBS) (Myeloperoxidase (MPO)): 47.8% | TNF-alpha conc. (TNF-alpha): 23.79 ± 2.82 pg/mg | Colon length (Percentage to group supplied with normal saline solution after treating TNBS) ([1]; 10 mg/kg orally): 155% | Macroscopic score (Percentage to group supplied with normal saline solution after treating TNBS) ([1]; 10 mg/kg orally): 61.1% | Body weight (Percentage to group supplied with normal saline solution after treating TNBS) ([1]; one time dosage amount 10 mg/kg orally): 113.5% | IL-1 beta conc. (IL-1 beta): 16.30 ± 3.38 pg/mg
